What was measured:
downy bromegrass = assay: Test F pre-/postemergence herbicide test; format: in vivo, Bromus tectorum
Source text: (§1) Seeds of plant species selected from annual blugrass (Poa annua L.), blackgrass (Alopecurus myosuroides Huds.), catchweed bedstraw (Gallium aparine L.), common chickweed (Stellaria media (L.) Vill./Cyr.), downy bromegrass (Bromus tectorum L.), green foxtail (Setaria viridis (L.) Beauv.), Italian ryegrass (Lolium multiflorum Lam.), kochia (Kochia scoparia (L.). Schrad.), lambsquarters (Chenopodium album L.), littleseed canarygrass (Phalaris minor Retz.), pigweed (Amaranthus retroflexus L.), Russian thistle (Salsola kali L. ssp. Ruthenica (Iljin) Soo), wild buckwheat (Polygonum convolvulus L.), wild mustard (Sinapis arvensis L.), wild oat (Avena fatua L.), windgrass (Apera spica-venti (L.) Beauv.), winter barley (Hordeum vulgare L.), and wheat (Triticum aestivum L.) were planted and treated preemergence with test chemicals formulated in a non-phytotoxic solvent mixture which included a surfactant.
(§2) At the same time, plants selected from these crop and weed species were treated with postemergence applications of some of the test chemicals formulated in the same manner. Plants ranged in height from 2 to 18 cm (1- to 4-leaf stage) for postemergence treatments. Treated plants and controls were maintained in a greenhouse for 12 to 14 days, after which time all species were compared to controls and visually evaluated. Plant response ratings, summarized in Table F, are based on a scale of 0 to 100 where 0 is no effect and 100 is complete control. A dash (-) response means no test result.

littleseed canarygrass = assay: Test F pre-/postemergence herbicide test; format: in vivo, Phalaris minor
Source text: as §1, §2

common chickweed = assay: Test F pre-/postemergence herbicide test; format: in vivo, Stellaria media
Source text: as §1, §2

wheat (TRZAS) = assay: Test J Compounds 2 and 6 alone and in combination with other herbicides, foliage spray; format: in vivo, Triticum aestivum; set-up: key: 0 = no effect, 100 = complete control; conditions: applied alone
Source text: Colby's Equation was used to calculate the expected additive herbicidal effect of the mixtures of Compound 6 with Harmony® Extra (i.e. a 2:1 mixture by weight of thifensulfuron-methyl and tribenuron-methyl). […]
Seeds of test plants consisting of barnyardgrass (ECHCG; Echinochloa crus-galli (L.) Beauv.), blackgrass (ALOMY; Alopecurus myosuroides Huds.), Surinam grass (BRADC; Urochloa decumbens (Staph) R. D. Webster, previously named Brachiaria decumbens Stapf), cocklebur (XANST, Xanthium strumarium L.), corn (ZEAMD, Zea mays L. cv. ‘Pioneer 33G26’), large crabgrass (DIGSA, Digitaria sanguinalis (L.) Scop.), giant foxtail (SETFA, Setaria faberi Herrm.), lambsquarters (CHEAL, Chenopodium album L.), morningglory (IPOCO, Ipomoea coccinea L.), pigweed (AMARE, Amaranthus retroflexus L.), velvetleaf (ABUTH, Abutilon theophrasti Medik.) wheat (TRZAS, Triticum aestivum L. cv. ‘Recital’) and wild oat (AVEFA, Avena fatua L.) were planted in Redi-Earth® planting medium (Scotts Company, 14111 Scottslawn Road, Marysville, Ohio 43041) comprising spaghnum peat moss and vermiculite. […] Also listed in Table J are the expected effects for the mixtures calculated using Colby's Equation.

In the case of `CCn1nc(C(C)(C)C)cc1C(=O)Nc1cc(C(=O)OC(C)C)c(F)cc1F` [Compound 248], the “Plant response rating (0-100), Bromegrass, Downy” value (“Plant response rating … Downy” for short) (downy bromegrass; Postemergence, 31 g ai/ha) is reported as 40, the “Plant response rating … Downy” value (downy bromegrass; Postemergence, 62 g ai/ha) is reported as 40 and the “Plant response rating … Downy” value (downy bromegrass; Postemergence, 125 g ai/ha) is reported as 40. For the same compound, the “Plant response rating … Downy” value (downy bromegrass; Postemergence, 250 g ai/ha) was 40, the “Plant response rating … Downy” value (downy bromegrass; Preemergence, 31 g ai/ha) was 35 and the “Plant response rating … Downy” value (downy bromegrass; Preemergence, 62 g ai/ha) was 45. For the same compound, the “Plant response rating … Downy” value (downy bromegrass; Preemergence, 125 g ai/ha) was 50, the “Plant response rating … Downy” value (downy bromegrass; Preemergence, 250 g ai/ha) was 65 and the “Plant response rating (0-100), Canarygrass” value (littleseed canarygrass; Postemergence, 31 g ai/ha) was 35. The “Plant response rating (0-100), Canarygrass” value (littleseed canarygrass; Postemergence, 62 g ai/ha) was 40, the “Plant response rating (0-100), Canarygrass” value (littleseed canarygrass; Postemergence, 125 g ai/ha) was 40 and the “Plant response rating (0-100), Canarygrass” value (littleseed canarygrass; Postemergence, 250 g ai/ha) was 45. The “Plant response rating (0-100), Canarygrass” value (littleseed canarygrass; Preemergence, 31 g ai/ha) was 40, the “Plant response rating (0-100), Canarygrass” value (littleseed canarygrass; Preemergence, 62 g ai/ha) was 45 and the “Plant response rating (0-100), Canarygrass” value (littleseed canarygrass; Preemergence, 250 g ai/ha) was 75. For the same compound, the “Plant response rating (0-100), Chickweed” value (common chickweed; Postemergence, 31 g ai/ha) was 65, the “Plant response rating (0-100), Chickweed” value (common chickweed; Postemergence, 62 g ai/ha) was 65 and the “Plant response rating (0-100), Chickweed” value (common chickweed; Postemergence, 125 g ai/ha) was 98. For the same compound, the “Plant response rating (0-100), Chickweed” value (common chickweed; Postemergence, 250 g ai/ha) was 100, the “Plant response rating (0-100), Chickweed” value (common chickweed; Preemergence, 31 g ai/ha) was 100 and the “Plant response rating (0-100), Chickweed” value (common chickweed; Preemergence, 62 g ai/ha) was 100. For the same compound, the “Plant response rating (0-100), Chickweed” value (common chickweed; Preemergence, 125 g ai/ha) was 100 and the “Plant response rating (0-100), Chickweed” value (common chickweed; Preemergence, 250 g ai/ha) was 100.
With `CCn1nc(C(C)(C)C)cc1C(=O)Nc1cc(C(=O)N(C)C)ccc1F` [Compound 6, N-[5-[(dimethylamino)carbonyl]-2-fluorophenyl]-3-(1,1-dimethylethyl)-1-ethyl-1H-pyrazole-5-carboxamide] the “TRZAS Obsd.” value (wheat (TRZAS); 62 g a.i./ha) was 15 and the “TRZAS Obsd.” value (wheat (TRZAS); 125 g a.i./ha) was 30.

— patent publication US20060069132A1, “Azolecarboxamide herbicides” (priority 2004, published 2006)
